In patent US20100119483A1, “PEPTIDE VIRAL ENTRY INHIBITORS” (Schering Corporation, priority 2004, published 2010):
Values joined by “and” are separate entries in the source; they are usually repeats but may differ in a detail not shown here. Identical values can stand only once.

Tested on: HCV pseudoparticles
Assay: HCV pseudoparticle (HCVpp) entry assay in Huh7 hepatoma cells, luciferase readout
Format: cell-based, hepatitis C virus
Conditions: for % of control at ~30 uM: percentage of hepatitis C virus cellular entry at 30 μM peptide vs uninhibited control
Protocol: HCV pseudotype particle generation. Single cycle HCV pseudoparticles are composed of a replication-defective HIV genome and HCV envelope proteins. These pseudoparticles were made by transfecting 293T cells with 5 ug of each pNL43E-R-luc (Chen et al., J. Virol. 68(2):654-60 (1994)) and plasmid expressing HCV envelope proteins pCMV/E1-2 with profection transfection kit from Promega (Madison, Wis.). The medium was refreshed 12-24 hours after transfection and supernatant was collected 48 hours after transfection. The supernatant from a transfection of only pNL43E-R-luc was used each time as a control for non specific entry events.
Infection of hepatoma cell lines with HCV pseudotype particles and screen for inhibitory peptides. The hepatoma cells, Huh7, was seeded at 8000 cells in 90 ul medium in 96-well plate. In the case of the inhibitor screen, the inhibitor was incubated with cells for one hour at 37° C. and then 50 ul viral supernatant was added to the cells 24 hours after seeding. The viral stock was pre-tittered and diluted to yield approximately 10,000 to 20,000 RLU. The cells were incubated at 37° C. with 5% CO2 for additional 72 hours and were harvested for luciferase assay. Peptide stocks were prepared in 100% DMSO at 10 mg/ml and were first screened at 100 ug/ml and then a dose responsive curve was generated with 10 points 3-fold titration starting from 100 ug/ml.
The peptide of SEQ ID NO: 77 was first serial diluted by the factor of 3 in 100% DMSO from 100 ug/ml and then transferred to the assay plates at 100-fold dilution. The peptide was first incubated with cells and HCVpp (A) or HIVpp (B), respectively, for 30 minutes at […] in this experiment. Then, the medium containing the peptide was removed from the cells and virus with peptide was added to the cells. Cells were incubated for 72 hours and then were harvested for luciferase assay. Two separate trials were performed.
In addition, the peptide of SEQ ID NO: 77 was mutated at several positions and assayed in the HCV entry assay discussed above. […] The assays were performed essentially as described above.

[1] = 0.00003 uM of peptide, two values per peptide and row
[2] = 0.0001 uM of peptide, two values per peptide
[3] = 0.0003 uM of peptide, two values per peptide
[4] = 0.001 uM of peptide, two values per peptide
[5] = 0.003 uM of peptide, two values per peptide
[6] = 0.01 uM of peptide, two values per peptide
[7] = 0.03 uM of peptide, two values per peptide
[8] = 30 uM of peptide, two values per peptide
[9] = 0.1 nM of peptide (printed for three rows), two values per peptide and row
[10] = 0.3 nM of peptide, two values per peptide
[11] = 1 nM of peptide, two values per peptide
[12] = 3 nM of peptide, two values per peptide
[13] = 10 nM of peptide, two values per peptide
[14] = 30 nM of peptide, two values per peptide
[15] = 100 nM of peptide, two values per peptide
[16] = 300 nM of peptide, two values per peptide
[17] = 10000 nM of peptide, two values per peptide
[18] = 30000 nM of peptide, two values per peptide

G-I-K-W-E-Y-V-L-L-L-F-L-L [SEQ ID NO: 82]
% control (HCVpp entry), glycine scanning [1]: 74 % control and 88 % control and 118 % control and 120 % control
% control (HCVpp entry), glycine scanning [2]: 62 % control and 61 % control
% control (HCVpp entry), glycine scanning [3]: 68 % control and 71 % control
% control (HCVpp entry), glycine scanning [4]: 90 % control and 66 % control
% control (HCVpp entry), glycine scanning [5]: 71 % control and 80 % control
% control (HCVpp entry), glycine scanning [6]: 53 % control and 43 % control
% control (HCVpp entry), glycine scanning [7]: 46 % control and 41 % control
% control (HCVpp entry), glycine scanning (0.1 uM of peptide, two values per peptide): 33 % control and 27 % control
% control (HCVpp entry), glycine scanning (0.3 uM of peptide, two values per peptide): 33 % control and 25 % control
% control (HCVpp entry), glycine scanning (10 uM of peptide, two values per peptide): 33 % control and 29 % control
% control (HCVpp entry), glycine scanning [8]: 18 % control and 29 % control
% of control at ~30 uM: 22%

A-K-K-W-E-Y-V-L-L-L-E-L-L [SEQ ID NO: 102]
% control (HCVpp entry), lysine scanning [9]: 104 % control and 102 % control and 89 % control and 108 % control and 98 % control and 106 % control
% control (HCVpp entry), lysine scanning [10]: 141 % control and 107 % control
% control (HCVpp entry), lysine scanning [11]: 96 % control and 83 % control
% control (HCVpp entry), lysine scanning [12]: 70 % control and 66 % control
% control (HCVpp entry), lysine scanning [13]: 67 % control and 62 % control
% control (HCVpp entry), lysine scanning [14]: 33 % control and 41 % control
% control (HCVpp entry), lysine scanning [15]: 16 % control and 25 % control
% control (HCVpp entry), lysine scanning [16]: 29 % control and 23 % control
% of control at ~30 uM: 5%

A-I-A-W-E-Y-V-L-L-L-F-L-L (AIAWEYVLLLFLL; HCV peptide) [SEQ ID NO: 88, Ala-scan]
% control (HCVpp entry), alanine scanning [9]: 96 % control and 85 % control and 87 % control and 108 % control and 109 % control
% control (HCVpp entry), alanine scanning [10]: 91 % control and 101 % control
% control (HCVpp entry), alanine scanning [11]: 100 % control and 69 % control
% control (HCVpp entry), alanine scanning [12]: 81 % control and 93 % control
% control (HCVpp entry), alanine scanning [13]: 56 % control and 60 % control
% control (HCVpp entry), alanine scanning [14]: 53 % control and 66 % control
% control (HCVpp entry), alanine scanning [15]: 37 % control and 57 % control
% control (HCVpp entry), alanine scanning [16]: 42 % control and 45 % control
% control (HCVpp entry), alanine scanning [17]: 27 % control and 32 % control
% of control at ~30 uM: 9%

A-I-K-W-E-Y-V-L-P-L-F-L-L (AIKWEYVLPLFLL; HCV peptide) [SEQ ID NO: 123]
% control (HCVpp entry), proline scanning [9]: 78 % control and 81 % control and 104 % control and 86 % control and 117 % control and 94 % control
% control (HCVpp entry), proline scanning [10]: 80 % control and 91 % control
% control (HCVpp entry), proline scanning [11]: 108 % control and 77 % control
% control (HCVpp entry), proline scanning [12]: 92 % control and 78 % control
% control (HCVpp entry), proline scanning [13]: 78 % control and 76 % control
% control (HCVpp entry), proline scanning [14]: 74 % control and 75 % control
% control (HCVpp entry), proline scanning [15]: 72 % control and 61 % control
% control (HCVpp entry), proline scanning [16]: 41 % control and 44 % control
% control (HCVpp entry), proline scanning [17]: 61 % control and 51 % control
% control (HCVpp entry), proline scanning [18]: 31 % control and 49 % control

A-G-K-W-E-Y-V-L-L-L-F-L-L (AGKWEYVLLLFLL; HCV peptide) [SEQ ID NO: 83, Gly-scan]
% control (HCVpp entry), glycine scanning [1]: 98 % control and 80 % control and 128 % control and 94 % control
% control (HCVpp entry), glycine scanning [2]: 75 % control and 94 % control
% control (HCVpp entry), glycine scanning [3]: 94 % control and 83 % control
% control (HCVpp entry), glycine scanning [4]: 70 % control and 67 % control
% control (HCVpp entry), glycine scanning [5]: 51 % control and 66 % control
% control (HCVpp entry), glycine scanning [6]: 76 % control and 56 % control
% control (HCVpp entry), glycine scanning [7]: 43 % control and 62 % control
% control (HCVpp entry), glycine scanning [8]: 18 % control and 15 % control
% of control at ~30 uM: 9%

A-I-K-W-E-Y-V-L-L-L-F-P-L (AIKWEYVLLLFPL; HCV peptide) [SEQ ID NO: 126]
% control (HCVpp entry), proline scanning [9]: 83 % control and 66 % control and 89 % control and 87 % control and 104 % control and 119 % control
% control (HCVpp entry), proline scanning [10]: 88 % control and 91 % control
% control (HCVpp entry), proline scanning [11]: 88 % control and 93 % control
% control (HCVpp entry), proline scanning [12]: 98 % control and 89 % control
% control (HCVpp entry), proline scanning [13]: 86 % control and 76 % control
% control (HCVpp entry), proline scanning [14]: 83 % control and 82 % control
% control (HCVpp entry), proline scanning [15]: 68 % control and 81 % control
% control (HCVpp entry), proline scanning [16]: 72 % control and 85 % control
% control (HCVpp entry), proline scanning [17]: 43 % control and 44 % control
% control (HCVpp entry), proline scanning [18]: 55 % control and 80 % control

A-I-K-W-P-Y-V-L-L-L-F-L-L (AIKWPYVLLLFLL; HCV peptide) [SEQ ID NO: 119]
% control (HCVpp entry), proline scanning [9]: 93 % control and 76 % control and 87 % control and 85 % control and 102 % control and 126 % control
% control (HCVpp entry), proline scanning [10]: 78 % control and 77 % control
% control (HCVpp entry), proline scanning [11]: 72 % control and 68 % control
% control (HCVpp entry), proline scanning [12]: 94 % control and 62 % control
% control (HCVpp entry), proline scanning [13]: 54 % control and 48 % control
% control (HCVpp entry), proline scanning [15]: 40 % control and 46 % control
% control (HCVpp entry), proline scanning [16]: 40 % control and 47 % control
% control (HCVpp entry), proline scanning [18]: 28 % control and 17 % control

A-I-K-W-E-Y-V-P-L-L-F-L-L (AIKWEYVPLLFLL; HCV peptide) [SEQ ID NO: 122]
% control (HCVpp entry), proline scanning [9]: 81 % control and 70 % control and 89 % control and 86 % control and 115 % control and 111 % control
% control (HCVpp entry), proline scanning [10]: 105 % control and 83 % control
% control (HCVpp entry), proline scanning [11]: 73 % control and 100 % control
% control (HCVpp entry), proline scanning [12]: 106 % control and 80 % control
% control (HCVpp entry), proline scanning [13]: 85 % control and 67 % control
% control (HCVpp entry), proline scanning [14]: 70 % control and 113 % control
% control (HCVpp entry), proline scanning [15]: 75 % control and 59 % control
% control (HCVpp entry), proline scanning [16]: 76 % control and 53 % control
% control (HCVpp entry), proline scanning [17]: 54 % control and 43 % control

A-I-K-W-E-Y-V-L-L-L-F-K-L (AIKWEYVLLLFKL; HCV peptide) [SEQ ID NO: 136]
% control (HCVpp entry), lysine scanning [9]: 67 % control and 81 % control and 82 % control and 94 % control and 116 % control and 108 % control
% control (HCVpp entry), lysine scanning [10]: 103 % control and 70 % control
% control (HCVpp entry), lysine scanning [11]: 71 % control and 90 % control
% control (HCVpp entry), lysine scanning [12]: 76 % control and 98 % control
% control (HCVpp entry), lysine scanning [13]: 80 % control and 71 % control
% control (HCVpp entry), lysine scanning [14]: 65 % control and 84 % control
% control (HCVpp entry), lysine scanning [15]: 98 % control and 84 % control
% control (HCVpp entry), lysine scanning [16]: 81 % control and 84 % control
% control (HCVpp entry), lysine scanning [17]: 34 % control and 68 % control
